# Experimental data taken from patent US20030013643A1, “Prevention and treatment of streptococcal and staphylococcal infection” (priority 2000, published 2003).
# What was measured:
# [1] = tested on: GAS; assay: GAS attachment to murine keratinocyte cell line PAM2.12 with exogenous hyaluronic acid; assay type: cell-based, Streptococcus pyogenes
# Procedure: For bacterial adherence assays, keratinocytes were seeded at 10^5 cells per well in collagen-coated tissue culture wells (Nalge Nunc International, Naperville, Ill.), incubated for 3 days at 34° C. in 8% CO2, washed, and overlaid with medium containing 10^6 CFU of GAS per well. After incubation for 1 hour at 34° C. in 8% CO2 the keratinocyte monolayers were washed twice to remove nonadherent bacteria, then the number of cell-associated bacteria was determined by quantitative culture after releasing the keratinocytes with try spin and lysing them in sterile water, experiments testing the effects of exogenous hyaluronic acid on GAS adherence were performed using the mouse keratinocyte cell line, PAM 2.12 (Song, I. S. 2000, Exp. Dermatol. 9:42-52). Cells were seeded in collagen-coated tissue culture wells at 10^5 cells per well, cultured for 3 days at 37° C. in 5% CO2, then inoculated with 10^6 CFU of GAS per well in medium containing exogenous hyaluronic acid (from rooster comb, Sigma Chemicals, St. Louis, Mo.), no inhibitor, or a control polysaccharide, alginic acid, a high-molecular-weight polymer of mannuronic acid and guluronic acid (Protonal Durvillea Alginate, Pronova. Biopolymer, Inc., Portsmouth, N.H.). Cells were incubated for 45 minutes at 37° C. in 5% CO2, then processed for enumeration of adherent bacteria as described above. In experiments to test whether exogenous hyaluronic acid could promote dissociation of GAS attached to keratinocytes, GAS were allowed to attach to keratinocytes in the absence of inhibitor; after 45 minutes, the medium was removed and replaced with fresh medium containing hyaluronic acid, no inhibitor, or alginic acid. After 45 minutes of incubation, the number of adherent bacteria was enumerated as described above.
# To investigate the specificity of the interaction between the GAS capsule and CD44 on epithelial cells, the ability of exogenous hyaluronic acid to compete with GAS for binding to murine keratinocytes was examined. Addition of exogenous hyaluronic acid to concentration 1 mg/ml[…], inhibited GAS attachment to the murine keratinocyte cell line PAM2.12 by >95% (P<0.03, FIG. 5). A concentration of 1 /ml alginic acid, another high molecular weight acidic polysaccharide, had no effect, supporting the hypothesis that adherence depends on a specific interaction between the GAS hyaluronic acid capsule and CD44 .
# In addition to the 1 mg/ml concentration of hyaluronic acid, additional trials were performed as indicated above, with a range of concentrations of hyaluronic acid added to the cells. The concentrations tested included 4 mg/ml, 2 mg/ml, 1 mg/ml, 0.75 mg/ml, 0.5 mg/ml, 0.25 mg/ml and 0.1 mg/ml. The hyaluronic acid concentrations from 4 mg/ml to 0.25 mg/ml blocked GAS binding by greater than 70%. Hyaluronic acid concentrations from 4 mg/ml to 0.5 mg/ml blocked GAS binding by greater than 80% (FIG. 6).
# [2] = tested on: GAS; assay: GAS translocation through abraded human skin equivalent; assay type: cell-based, Streptococcus pyogenes; conditions: pre-treated at 2 mg/ml for 1 hour; 4 hour infection period
# Procedure: To examine GAS translocation in a model system similar to normal human skin, we utilized pseudo-organ cultures of human skin equivalent. This material is made by constructing a “dermis” that consists of human fibroblasts cultured in a collagen matrix; human foreskin keratinocytes are seeded on top of the dermal equivalent and cultured under conditions that promote differentiation into a stratified squamous epithelium with a stratum comeum. The histology of the human skin equivalent is very similar to that of normal human skin except for the absence of non-keratinocyte elements such as blood vessels and hematopoietic cells, nerves, and hair follicles. Since intact human skin is highly resistant to GAS infection, we simulated minor trauma to the superficial epidermis by abrading the surface of the skin equivalent with a cytology brush to introduce breaks in the stratum corneum. GAS were inoculated onto the surface of abraded skin equivalent that had either been pre-treated with nothing, HA, or AL at 2 mg/ml for 1 hour and translocation through the tissue was monitored by culture of GAS from the basal surface of the skin equivalent at intervals. As depicted in FIG. 10, HA inhibited translocation GAS by 91% (solid bars). In comparison the AL control prevented only 14% of bacteria from translocating through the skin equivalent during the 4 hour infection period. […]
# [3] = tested on: Group A Streptococcus (GAS, strain 950771); assay: Bacterial binding to human keratinocyte monolayers, GAS; assay type: cell-based; conditions: 1 mg/ml pre-incubation; multiplicity of infection 10; 1 hour
# Procedure: Keratinocyte monolayers were prepared as descibed above in Methods section and pre-incubated with 1 mg/ml alginate (AL, solid bars) or 1 mg/ml hyaluronic acid (HA, hatched bars) prior to surface inoculation (as described above in Methods) with either Group A Streptococcus (GAS, strain 950771), Group B Streptococcus (GBS, strain 515), Streptococcus pneumoniae (S. pneumo, type 6), or Staphylococcus aureus (S. aureus, type 8) at a multiplicity of infection of 10 bacteria per keratinocyte for 1 hour.
substance,measurement,setting,value
hyaluronic acid,reduction in bacterial attachment,"[1]; added up to 45 minutes after adding GAS to the keratinocytes, P<0.03",> 90%
same,reduction of GAS attachment,"[1]; addition delayed for 2 hours, P<0.03",70-80%
same,blocking of GAS binding,[1]; concentrations from 4 mg/ml to 0.25 mg/ml,greater than 70%
same,blocking of GAS binding,[1]; concentrations from 4 mg/ml to 0.5 mg/ml,greater than 80%
same,inhibition of GAS attachment to PAM2.12,"[1]; hyaluronic acid 1 mg/ml added with GAS, P<0.03",> 95%
same,inhibition of translocation of GAS through skin equivalent,[2],91%
same,inhibition of binding,[3],more than 80%
